{"source": "paper PMC4736156", "about": "(Drug delivery and translational research, 2016)", "key": {"[1]": {"conditions": "in serum; ref [16]; cited from earlier work"}, "[2]": {"assay": "Penetration and retention in mouse colorectal mucosa after rectal dosing", "type": "in vivo", "conditions": "mice, rectal 200 µl of 30 µM; at 2 h and 1 d; result in words"}, "[3]": {"conditions": "in vivo; cited from earlier work"}, "recombinant HIV-1 PR": {"molecular_target": "recombinant HIV-1 PR (Human immunodeficiency virus type 1 group M subtype B, UniProt P04585)", "assay": "FRET-based HIV-1 PR inhibition assay", "type": "biochemical", "conditions": "FRET substrate 5.0 µM, HIV-1 PR 35.2 nM, 37 °C, mean ± s.d., n = 3"}, "HIV": {"system": "HIV", "conditions": "tenofovir gel formulation, vaginal mucosa, CAPRISA 004; ref [4],[5]; cited from earlier work"}}, "note": "Where “and” joins values, the source holds several entries; their conditions need not be identical. Equal entries are not always repeated. Structures can show the parent of a compound that is named as a salt.", "data": [{"molecule": "CC(C)OC(=O)OCOP(=O)(CO[C@H](C)Cn1cnc2c(N)ncnc21)OCOC(=O)OC(C)C", "note": "[TDF, tenofovir disoproxil fumarate]", "values": [{"measurement": "half-life", "setting": "[1]", "result": "about 17 hours"}]}, {"molecule": "fluoresceine thiourea [FTU]", "values": [{"measurement": "mucosal tissue concentration", "setting": "[2]", "result": "negligible"}]}, {"molecule": "CC(Cn1cnc2c(N)ncnc21)OCP(=O)(O)OP(=O)(O)OP(=O)(O)O", "note": "(stereo in doubt) [tenofovir diphosphate]", "values": [{"measurement": "vaginal concentrations in tissue after daily gel administration", "setting": "[3]", "result": "about 1000 fmol/mg"}]}, {"molecule": "CC(C)CN(C[C@@H](O)[C@H](Cc1ccccc1)NC(=O)O[C@H]1CCOC1)S(=O)(=O)c1ccc(N)cc1", "note": "[APV, amprenavir]", "values": [{"measurement": "rate constant kobs of FRET substrate cleavage (slope of ln(F∞ – Ft) vs time)", "setting": "recombinant HIV-1 PR; 1.0 µM APV", "result": "−0.1638 (± 0.0080) min^−1 and −0.1638 (± 0.007995) min^−1"}, {"measurement": "rate constant kobs of FRET substrate cleavage (slope of ln(F∞ – Ft) vs time)", "setting": "recombinant HIV-1 PR; 2.0 µM APV", "result": "−0.0890 (± 0.0049) min^−1 and −0.0890 (± 0.004938) min^−1"}, {"measurement": "rate constant kobs of FRET substrate cleavage (slope of ln(F∞ – Ft) vs time)", "setting": "recombinant HIV-1 PR; 5.0 µM APV", "result": "−0.03766 (± 0.0019) min^−1 and −0.03766 (± 0.00191) min^−1"}, {"measurement": "cell viability compared to untreated cells", "setting": "MT-2 cells", "result": "no statistical difference in comparison to untreated cells"}]}, {"molecule": "C[C@H](Cn1cnc2c(N)ncnc21)OCP(=O)(O)O", "note": "[tenofovir]", "values": [{"measurement": "effectiveness in preventing HIV transmission", "setting": "HIV", "result": 39, "unit": "%"}]}]}
